The first assay deals with NCI-H1355. The experiment in a line: relative viability (nuclei count vs DMSO), 5 days (fraction); higher = more cells survive. As to conditions: first compound 6.325 µM. The essentials: (§1)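 Lung cancer cell lines in 1536-well plates were dosed by pin tool the day after seeding, either with one drug alone or with a fixed anchor-drug dose plus five library-drug doses (not always all listed) in √10 steps. After 5 days, cells were fixed and their nuclei stained in one step (final 0.05% Triton X-100, 1% formaldehyde, 1 ug/ml Hoechst), then counted on 4× images. Relative viability is the nuclei count in treated wells divided by that in vehicle wells. Values are medians of duplicate plates.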
`COCC1(CO)C(=O)C2CCN1CC2` (configuration not stated) [PRIMA-1MET] + C[C@@H](Oc1cc(-c2cnn(C3CCNCC3)c2)cnc1N)c1c(Cl)ccc(F)c1Cl [Crizotinib] (partner 1 µM) had a relative viability of 1.05.

Staying with this assay, now noted: first compound 20 µM.
The compound `COCC1(CO)C(=O)C2CCN1CC2` (configuration not stated) [PRIMA-1MET] + O=C(CCCCCCC(=O)Nc1ccccc1)NO [Vorinostat] (partner 1 µM) displayed a relative viability of 0.58.

Regarding `COCC1(CO)C(=O)C2CCN1CC2` (configuration not stated) [PRIMA-1MET] + C[C@]1(O)C[C@@H](c2nc(-c3ccc4ccc(-c5ccccc5)nc4c3)c3c(N)nccn32)C1 [Linsitinib] (partner 1 µM), the relative viability turned out to be 0.76.

`COCC1(CO)C(=O)C2CCN1CC2` (configuration not stated) [PRIMA-1MET] + Cc1cc(Nc2cc(N3CCN(C)CC3)nc(Sc3ccc(NC(=O)C4CC4)cc3)n2)n[nH]1 [Tozasertib] (partner 0.1 µM) yielded a relative viability of 0.517.

`COCC1(CO)C(=O)C2CCN1CC2` (configuration not stated) [PRIMA-1MET] + Cc1nc(NC(=O)N2CCC[C@H]2C(N)=O)sc1-c1ccnc(C(C)(C)C(F)(F)F)c1 [Alpelisib] (partner 2 µM) showed a relative viability of 0.852.

In turn, `COCC1(CO)C(=O)C2CCN1CC2` (configuration not stated) [PRIMA-1MET] + C[C@@H](Oc1cc(-c2cnn(C3CCNCC3)c2)cnc1N)c1c(Cl)ccc(F)c1Cl [Crizotinib] (partner 1 µM) returned a relative viability of 1.03.

The subject of a further assay is NCI-H322M. Described as above. As to conditions: first compound 0.2 µM. The procedure, abridged: as §1
The compound `COCC1(CO)C(=O)C2CCN1CC2` (configuration not stated) [PRIMA-1MET] + O=C(CCCCCCC(=O)Nc1ccccc1)NO [Vorinostat] (partner 1 µM) had a relative viability of 1.05.

In the case of `COCC1(CO)C(=O)C2CCN1CC2` (configuration not stated) [PRIMA-1MET] + C[C@]1(O)C[C@@H](c2nc(-c3ccc4ccc(-c5ccccc5)nc4c3)c3c(N)nccn32)C1 [Linsitinib] (partner 1 µM), the relative viability stood at 0.932.

In turn, `COCC1(CO)C(=O)C2CCN1CC2` (configuration not stated) [PRIMA-1MET] + Cc1cc(Nc2cc(N3CCN(C)CC3)nc(Sc3ccc(NC(=O)C4CC4)cc3)n2)n[nH]1 [Tozasertib] (partner 0.1 µM) came in with a relative viability of 0.515.

`COCC1(CO)C(=O)C2CCN1CC2` (configuration not stated) [PRIMA-1MET] + Cc1nc(NC(=O)N2CCC[C@H]2C(N)=O)sc1-c1ccnc(C(C)(C)C(F)(F)F)c1 [Alpelisib] (partner 2 µM) showed a relative viability of 0.942.

As for `COCC1(CO)C(=O)C2CCN1CC2` (configuration not stated) [PRIMA-1MET] + C[C@@H](Oc1cc(-c2cnn(C3CCNCC3)c2)cnc1N)c1c(Cl)ccc(F)c1Cl [Crizotinib] (partner 1 µM), the relative viability is 0.75.

The assay is the same for the next values; noted with them: first compound 0.6325 µM.
For the compound `COCC1(CO)C(=O)C2CCN1CC2` (configuration not stated) [PRIMA-1MET] + O=C(CCCCCCC(=O)Nc1ccccc1)NO [Vorinostat] (partner 1 µM), the relative viability was 0.806.

Consider `COCC1(CO)C(=O)C2CCN1CC2` (configuration not stated) [PRIMA-1MET] + Cc1cc(Nc2cc(N3CCN(C)CC3)nc(Sc3ccc(NC(=O)C4CC4)cc3)n2)n[nH]1 [Tozasertib] (partner 0.1 µM), for which the relative viability worked out at 0.523.

The same assay, now with this note: first compound 6.325 µM.
The compound `COCC1(CO)C(=O)C2CCN1CC2` (configuration not stated) [PRIMA-1MET] + O=C(CCCCCCC(=O)Nc1ccccc1)NO [Vorinostat] (partner 1 µM) gave a relative viability of 0.994.

The compound `COCC1(CO)C(=O)C2CCN1CC2` (configuration not stated) [PRIMA-1MET] + C[C@]1(O)C[C@@H](c2nc(-c3ccc4ccc(-c5ccccc5)nc4c3)c3c(N)nccn32)C1 [Linsitinib] (partner 1 µM) had a relative viability of 0.942.

With `COCC1(CO)C(=O)C2CCN1CC2` (configuration not stated) [PRIMA-1MET] + Cc1cc(Nc2cc(N3CCN(C)CC3)nc(Sc3ccc(NC(=O)C4CC4)cc3)n2)n[nH]1 [Tozasertib] (partner 0.1 µM), the relative viability was 0.504.

The compound `COCC1(CO)C(=O)C2CCN1CC2` (configuration not stated) [PRIMA-1MET] + Cc1nc(NC(=O)N2CCC[C@H]2C(N)=O)sc1-c1ccnc(C(C)(C)C(F)(F)F)c1 [Alpelisib] (partner 2 µM) had a relative viability of 0.907.

Regarding `COCC1(CO)C(=O)C2CCN1CC2` (configuration not stated) [PRIMA-1MET] + C[C@@H](Oc1cc(-c2cnn(C3CCNCC3)c2)cnc1N)c1c(Cl)ccc(F)c1Cl [Crizotinib] (partner 1 µM), the relative viability came out at 0.991.

Staying with this assay, now noted: first compound 20 µM.
Compound `COCC1(CO)C(=O)C2CCN1CC2` (configuration not stated) [PRIMA-1MET] + O=C(CCCCCCC(=O)Nc1ccccc1)NO [Vorinostat] (partner 1 µM) gave a relative viability of 0.837.

The compound `COCC1(CO)C(=O)C2CCN1CC2` (configuration not stated) [PRIMA-1MET] + C[C@]1(O)C[C@@H](c2nc(-c3ccc4ccc(-c5ccccc5)nc4c3)c3c(N)nccn32)C1 [Linsitinib] (partner 1 µM) registered a relative viability of 0.862.

As for `COCC1(CO)C(=O)C2CCN1CC2` (configuration not stated) [PRIMA-1MET] + Cc1cc(Nc2cc(N3CCN(C)CC3)nc(Sc3ccc(NC(=O)C4CC4)cc3)n2)n[nH]1 [Tozasertib] (partner 0.1 µM), the relative viability stood at 0.286.

As for `COCC1(CO)C(=O)C2CCN1CC2` (configuration not stated) [PRIMA-1MET] + Cc1nc(NC(=O)N2CCC[C@H]2C(N)=O)sc1-c1ccnc(C(C)(C)C(F)(F)F)c1 [Alpelisib] (partner 2 µM), the relative viability turned out to be 0.671.

In turn, `COCC1(CO)C(=O)C2CCN1CC2` (configuration not stated) [PRIMA-1MET] + C[C@@H](Oc1cc(-c2cnn(C3CCNCC3)c2)cnc1N)c1c(Cl)ccc(F)c1Cl [Crizotinib] (partner 1 µM) showed a relative viability of 0.82.

Another assay concerns LU99A. The assay is described as above. As to conditions: first compound 0.2 µM. The essentials: as §1
Compound `COCC1(CO)C(=O)C2CCN1CC2` (configuration not stated) [PRIMA-1MET] + O=C(CCCCCCC(=O)Nc1ccccc1)NO [Vorinostat] (partner 1 µM) yielded a relative viability of 0.628.

`COCC1(CO)C(=O)C2CCN1CC2` (configuration not stated) [PRIMA-1MET] + C[C@]1(O)C[C@@H](c2nc(-c3ccc4ccc(-c5ccccc5)nc4c3)c3c(N)nccn32)C1 [Linsitinib] (partner 1 µM) had a relative viability of 0.629.

Regarding `COCC1(CO)C(=O)C2CCN1CC2` (configuration not stated) [PRIMA-1MET] + Cc1cc(Nc2cc(N3CCN(C)CC3)nc(Sc3ccc(NC(=O)C4CC4)cc3)n2)n[nH]1 [Tozasertib] (partner 0.1 µM), the relative viability was determined as 0.282.

For `COCC1(CO)C(=O)C2CCN1CC2` (configuration not stated) [PRIMA-1MET] + Cc1nc(NC(=O)N2CCC[C@H]2C(N)=O)sc1-c1ccnc(C(C)(C)C(F)(F)F)c1 [Alpelisib] (partner 2 µM), the relative viability is 0.631.

For the compound `COCC1(CO)C(=O)C2CCN1CC2` (configuration not stated) [PRIMA-1MET] + C[C@@H](Oc1cc(-c2cnn(C3CCNCC3)c2)cnc1N)c1c(Cl)ccc(F)c1Cl [Crizotinib] (partner 1 µM), the relative viability worked out at 0.564.

Still in this assay, the particulars now being: first compound 0.6325 µM.
Consider `COCC1(CO)C(=O)C2CCN1CC2` (configuration not stated) [PRIMA-1MET] + O=C(CCCCCCC(=O)Nc1ccccc1)NO [Vorinostat] (partner 1 µM), for which the relative viability came out at 0.342.

As for `COCC1(CO)C(=O)C2CCN1CC2` (configuration not stated) [PRIMA-1MET] + C[C@]1(O)C[C@@H](c2nc(-c3ccc4ccc(-c5ccccc5)nc4c3)c3c(N)nccn32)C1 [Linsitinib] (partner 1 µM), the relative viability was 0.439.

`COCC1(CO)C(=O)C2CCN1CC2` (configuration not stated) [PRIMA-1MET] + Cc1cc(Nc2cc(N3CCN(C)CC3)nc(Sc3ccc(NC(=O)C4CC4)cc3)n2)n[nH]1 [Tozasertib] (partner 0.1 µM) returned a relative viability of 0.268.

Take `COCC1(CO)C(=O)C2CCN1CC2` (configuration not stated) [PRIMA-1MET] + Cc1nc(NC(=O)N2CCC[C@H]2C(N)=O)sc1-c1ccnc(C(C)(C)C(F)(F)F)c1 [Alpelisib] (partner 2 µM): the relative viability worked out at 0.457.

For the origin of these results see the supplement of paper PMC10307832.
